One data set has as its system NRF2. The data set is described as follows: NRF2 induction, luciferase activity in AREc32 cells. The data set is classed as cell-based. Conditions: concentration that doubles the activation of NRF2, read-out: NRF2 CD. The source says: Screening of NRF2 induction was quantified by luciferase activity in AREc32 cells as described in [Herrera-Arozamena, Clara et al. "Tuning melatonin receptor subtype selectivity in oxadiazolone-based analogues: Discovery of QR2 ligands and NRF2 activators with neurogenic properties." European journal of medicinal chemistry vol. 190 (2020): 112090. doi:10.1016/j.ejmech.2020.112090].
(§1) Based on the results obtained (Table 2), Compound 1 was selected for further in vitro and in vivo studies as it was endowed with the best anti-neuroinflammatory activity. Table 2: Comparative in vitro results. Cell viability/toxicity: effect of the compound per se on cell viability of […] cells measured with the MTT method. Anti-neuroinflammatory effect: % Reduction of nitrites in primary rat glial cultures. PAMPA-BBB: In vitro blood-brain barrier permeation assay, permeation rate Pe (10-6 cm.s-1). NRF2, CD (µM): Concentration of compound that doubles de activation of NRF2. ORAC: Oxygen radical absorbance capacity. LOX-5: lipoxygenase-5.

The target in data set [1] is T1, human lipoxygenase-5 (hLOX-5) (Homo sapiens, UniProt P09917).
T1 sequence (P09917 1-674): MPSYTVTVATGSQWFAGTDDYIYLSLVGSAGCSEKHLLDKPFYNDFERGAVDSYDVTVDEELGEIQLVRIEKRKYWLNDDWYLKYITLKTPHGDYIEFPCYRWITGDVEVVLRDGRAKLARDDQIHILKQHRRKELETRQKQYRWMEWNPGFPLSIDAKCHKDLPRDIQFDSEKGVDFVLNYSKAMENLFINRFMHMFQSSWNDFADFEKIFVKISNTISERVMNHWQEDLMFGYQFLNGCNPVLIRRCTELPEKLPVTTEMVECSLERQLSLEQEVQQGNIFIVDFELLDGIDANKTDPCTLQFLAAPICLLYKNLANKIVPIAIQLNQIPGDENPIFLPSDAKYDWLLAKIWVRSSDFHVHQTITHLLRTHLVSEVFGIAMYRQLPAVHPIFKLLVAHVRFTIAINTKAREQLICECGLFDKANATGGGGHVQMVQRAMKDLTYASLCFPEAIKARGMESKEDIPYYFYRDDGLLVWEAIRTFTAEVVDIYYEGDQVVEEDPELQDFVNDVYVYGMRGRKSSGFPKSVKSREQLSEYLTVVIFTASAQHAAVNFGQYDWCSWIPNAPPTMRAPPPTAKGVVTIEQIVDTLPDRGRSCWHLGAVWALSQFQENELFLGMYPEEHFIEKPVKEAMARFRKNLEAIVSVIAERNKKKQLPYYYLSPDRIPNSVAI
Put plainly: Inhibition of human lipoxygenase-5. The data set is classed as biochemical. The settings on record: mean ± SD of three independent experiments in triplicate; read-out: LOX5 IC50. Here is the method:
The inhibition of human lipoxygenase-5 (hLOX-5) was performed as described [Herrera-Arozamena, Clara et al. "Tuning melatonin receptor subtype selectivity in oxadiazolone-based analogues: Discovery of QR2 ligands and NRF2 activators with neurogenic properties." European journal of medicinal chemistry vol. 190 (2020): 112090. doi:10.1016/j.ejmech.2020.112090], Data are the mean ± SD of three independent experiments performed in triplicate.

A short description of data set [2]: Cell viability/toxicity by the MTT method. The settings on record: human, effect of the compound per se on AREc332 cells. It counts as cell-based.
From the text: as §1
In general terms: Tetrazolium assays rely on reduction of a dye to a coloured formazan, in cell work by metabolically active cells.

Data set [3] is described as follows: Oxygen Radical Absorbance Capacity Assay (ORAC). It counts as physicochemical. The settings on record: ORAC > 1.0 is a better ROS scavenger than trolox. Here is the method: The Oxygen Radical Absorbance Capacity Assay (ORAC) was performed as described [Herrera-Arozamena, Clara et al. "Resveratrol-Based MTDLs to Stimulate Defensive and Regenerative Pathways and Block Early Events in Neurodegenerative Cascades." Journal of medicinal chemistry vol. 65,6 (2022): 4727-4751. doi:10.1021/acs.jmedchem.1c01883].

Data set [4] can be described thus: In vitro blood-brain barrier permeation assay (PAMPA-BBB). It counts as in vitro ADME. Conditions: for Papp: PAMPA, permeation rate, mean ± SD, read-out: PAMPA-BBB Pe. The source says: The in vitro blood-brain barrier permeation assay (PAMPA-BBB) was used for predicting the brain penetration of compounds, following a described method [Herrera-Arozamena, Clara et al. "Resveratrol-Based MTDLs to Stimulate Defensive and Regenerative Pathways and Block Early Events in Neurodegenerative Cascades." Journal of medicinal chemistry vol. 65,6 (2022): 4727-4751. doi:10.1021/acs.jmedchem.1c01883]. The results are given as the mean ± SD. In each experiment, 11 quality control standards of known BBB permeability were included to validate the analysis set.
In general terms: The PAMPA barrier holds no transporters, so it reflects passive diffusion.

For data set [5], the system named is primary rat glial cultures. Put plainly: Anti-neuroinflammatory screening in LPS-treated primary glial cultures (Griess, normalized by MTT). Conditions: % reduction of nitrites, LPS alone = 100 % inflammation, read-out: Anti-neuro inflammatory effect at 3 µM (%). It counts as cell-based. How it is done:
Screening for anti-inflammatory properties in primary rat glial cultures was performed according to the protocol described previously [Gameiro, Isabel et al. "Discovery of the first dual GSK3β inhibitor/Nrf2 inducer. A new multitarget therapeutic strategy for Alzheimer's disease." Scientific reports vol. 7 45701. 31 Mar. 2017, doi:10.1038/srep45701]. All compounds were evaluated at the single concentration of 3 µM. Neuroinflammation was quantified as the value of released […], measured by the Griess method, normalized by the number of viable cells measured by the MTT method [Mosmann, T. "Rapid colorimetric assay for cellular growth and survival: application to proliferation and cytotoxicity assays." Journal of immunological methods vol. 65, 1-2 (1983): 55-63. doi:10.1016/0022-1759(83)90303-4]. LPS alone was considered 100 % inflammation.
as §1
On the technique in general: Nitrite, measured by Griess reagent, commonly stands in for NO production.

For the compound `COc1ccc2[nH]c(-c3c[nH]c4ccc(OC)cc34)cc2c1` [Compound 2, 5,5'-Dimethoxy-1H,1'H-2,3'-biindole], in the data set on NRF2, the EC (2-fold activation) amounted to 0.329 ± 0.017 µM. Further, the IC50 in data set [1] worked out at 0.42 ± 0.03 µM. In data set [2], this compound displayed a CC50 of 3 to 10 µM. Also, the “ORAC (trolox equiv.)” value in data set [3] stood at 1.5 ± 0.2 trolox equiv. In data set [4], the “PAMPA-BBB predicted brain penetration” value is given as “cns+” and the Papp was 8.7 ± 0.6 ×10⁻⁶ cm/s. Also, the inhibition at 3 µM in data set [5] was found to be 33.2 ± 11.8%.

Regarding `c1ccc2c(c1)CC(c1c[nH]c3ccccc13)N2` (stereo not shown) [Compound 3, 3-(Indolin-2-yl)-1H-indole], the EC (2-fold activation) with NRF2 is 0.0713 ± 0.031 µM. Moreover, the IC50 in data set [1] was 2.89 ± 0.44 µM. Besides, the CC50 in data set [2] was above 30 µM. The “ORAC (trolox equiv.)” value in data set [3] is reported as 1.9 ± 0.1 trolox equiv. For the same compound, in data set [4], the “PAMPA-BBB predicted brain penetration” value is on record as “cns+” and the Papp is 11.5 ± 0.8 ×10⁻⁶ cm/s. Moreover, the inhibition at 3 µM in data set [5] is 24.4 ± 6.7%.

In the case of `Clc1ccc2c(c1)CC(c1c[nH]c3ccc(Cl)cc13)N2` (stereo not shown) [Compound 4, 5-Chloro-3-(5-chloroindolin-2-yl)-1H-indole], the EC (2-fold activation) in the data set with NRF2 was found to be 2.04 ± 0.2 µM. The IC50 in data set [1] amounted to 4.57 ± 0.25 µM. The same compound had a CC50 in data set [2] of 10 to 30 µM. The “ORAC (trolox equiv.)” value in data set [3] is on record as 1.6 ± 0.2 trolox equiv. Besides, in data set [4], the “PAMPA-BBB predicted brain penetration” value is on record as “cns+” and the Papp came to 5.2 ± 0.4 ×10⁻⁶ cm/s. In addition, the inhibition at 3 µM in data set [5] turned out to be 29.6 ± 9.4%.

Consider `Clc1ccc2[nH]c(-c3c[nH]c4ccc(Cl)cc34)cc2c1` [Compound 5, 5,5'-Dichloro-1H,1'H-2,3'-biindole], for which the EC (2-fold activation) in the data set on NRF2 worked out at 2.57 ± 0.68 µM. Also, the IC50 in data set [1] is above 100 µM. Further, in data set [2], the CC50 was above 30 µM. In addition, the “ORAC (trolox equiv.)” value in data set [3] is listed as 0.5 ± 0.1 trolox equiv. In data set [4], the “PAMPA-BBB predicted brain penetration” value is listed as “cns+” and the Papp worked out at 10.9 ± 0.7 ×10⁻⁶ cm/s. Besides, in data set [5], the inhibition at 3 µM was found to be 30 ± 10%.

Consider `COc1cccc2c1NC(c1c[nH]c3c(OC)cccc13)C2` (stereo not shown) [Compound 6, 7-Methoxy-3-(7-methoxyindolin-2-yl)-1H-indole], for which the EC (2-fold activation) in the data set with NRF2 was 3.27 ± 0.25 µM. The 50% inhibitory concentration (IC50) in data set [1] is above 100 µM. The CC50 in data set [2] is above 30 µM. The “ORAC (trolox equiv.)” value in data set [3] is 1.0 ± 0.1 trolox equiv. For the same compound, in data set [4], the “PAMPA-BBB predicted brain penetration” value is on record as “cns+” and the Papp worked out at 18.5 ± 0.8 ×10⁻⁶ cm/s. In addition, the inhibition at 3 µM in data set [5] amounted to 45 ± 8.7%.

For the compound `FC(F)(F)c1ccc2c(c1)CC(c1c[nH]c3ccc(C(F)(F)F)cc13)N2` (stereo not shown) [Compound 7, 5-(Trifluoromethyl)-3-(5-(trifluoromethyl)indolin-2-yl)-1H-indole], the EC (2-fold activation) with NRF2 was above 30 µM. In addition, the IC50 in data set [1] worked out at 6.63 ± 0.21 µM. In addition, the CC50 in data set [2] lay in the range of 10 to 30 µM. The “ORAC (trolox equiv.)” value in data set [3] was determined as 1.3 ± 0.1 trolox equiv. In data set [4], the “PAMPA-BBB predicted brain penetration” value was “cns+” and the Papp was found to be 18.1 ± 0.9 ×10⁻⁶ cm/s. In data set [5], the inhibition at 3 µM was 45 ± 7.1%.

`C#CCN1c2ccc(OC)cc2CC1c1cn(CC#C)c2ccc(OC)cc12` (stereo not shown) [Compound 8, 5-Methoxy-3-(5-methoxy-1-(prop-2-yn-1-yl)indolin-2-yl)-1-(prop-2-yn-1-yl)-1H-indole]: the EC (2-fold activation) in the data set with NRF2 came out at 10.7 ± 1.3 µM. Moreover, the IC50 in data set [1] turned out to be 0.53 ± 0.02 µM. In data set [2], the CC50 was above 30 µM. Also, the “ORAC (trolox equiv.)” value in data set [3] came out at 1.3 ± 0.1 trolox equiv. Also, in data set [4], the “PAMPA-BBB predicted brain penetration” value is on record as “cns+” and the Papp stood at 8.3 ± 0.3 ×10⁻⁶ cm/s. Besides, the inhibition at 3 µM in data set [5] worked out at 37 ± 11%.

The IC50 is the concentration that gives 50% inhibition. For orientation: CC50 means the concentration giving 50% cytotoxicity. Low readings indicate greater toxicity to the cells, high ones lower toxicity to the cells.

Source of the values: patent publication EP4467137A1, “TREATMENT OF FRONTOTEMPORAL DEMENTIA OR FRONTOTEMPORAL LOBAR DEMENTIA” (Universidad Autónoma de Madrid, priority 2023, dated 2024).
